# According to ChEMBL document CHEMBL1143406 (Antimicrob Agents Chemother, 2007):
# Experiments:
# Assay type in all cases: ADME, organism-based
# [1] = Tmax in HIV-negative human at 600 mg, po administered every 24 hrs coadministered with 300 mg of atazanavir every 12 hrs; details: in vivo
# [2] = Half life in HIV-negative human at 600 mg, po administered every 24 hrs coadministered with 400 mg of atazanavir every 12 hrs; details: in vivo
# Homo sapiens [3] = test: Terminal apparent distribution volume in HIV-negative human at 600 mg, po administered every 24 hrs coadministered with 400 mg of atazanavir every 12 hrs; details: in vivo
# [4] = AUC (24 hrs) in HIV-negative human at 600 mg, po administered every 24 hrs coadministered with 400 mg of atazanavir every 12 hrs; set-up: time < 24 hr, dose 600 mg, route oral; details: plasma
# [5] = Apparent oral clearance in HIV-negative human at 600 mg, po administered every 24 hrs coadministered with 300 mg of atazanavir every 12 hrs; details: in vivo
# [6] = Cmax in HIV-negative human at 600 mg, po administered every 24 hrs coadministered with 300 mg of atazanavir every 12 hrs; set-up: dose 600 mg, route oral; details: in vivo
# Homo sapiens [7] = test: Terminal apparent distribution volume in HIV-negative human at 600 mg, po administered every 24 hrs coadministered with 300 mg of atazanavir every 12 hrs; details: in vivo
# [8] = Half life in HIV-negative human at 600 mg, po administered every 24 hrs coadministered with 300 mg of atazanavir every 12 hrs; details: in vivo
# [9] = AUC (24 hrs) in HIV-negative human at 600 mg, po administered every 24 hrs coadministered with 300 mg of atazanavir every 12 hrs; set-up: dose 600 mg, time < 24 hr, route oral; details: plasma
# [10] = Tmax in HIV-negative human at 600 mg, po administered every 24 hrs coadministered with 400 mg of atazanavir every 12 hrs; details: in vivo
# [11] = Apparent oral clearance in HIV-negative human at 600 mg, po administered every 24 hrs coadministered with 400 mg of atazanavir every 12 hrs; details: in vivo
# [12] = Cmax in HIV-negative human at 600 mg, po administered every 24 hrs coadministered with 400 mg of atazanavir every 12 hrs; set-up: dose 600 mg, route oral; details: in vivo
structure (smiles),measurement,setting,value
CO[C@H]1/C=C/O[C@@]2(C)Oc3c(C)c(O)c4c(O)c(c(/C=N/N5CCN(C)CC5)c(O)c4c3C2=O)NC(=O)/C(C)=C\C=C\[C@H](C)[C@H](O)[C@@H](C)[C@@H](O)[C@@H](C)[C@H](O)[C@@H]1C,Tmax,[1],3.2 h
same,half-life,[2],1.5 h
same,Vbeta,Homo sapiens [3],159 L
same,AUC at 24 h,[4],9400 ng·h/mL
same,CL/F,[5],1490 mL/min
same,Cmax,[6],1650 ng/mL
same,Vbeta,Homo sapiens [7],200 L
same,half-life,[8],1.6 h
same,AUC at 24 h,[9],8300 ng·h/mL
same,Tmax,[10],3.7 h
same,CL/F,[11],1260 mL/min
same,Cmax,[12],1710 ng/mL
